Data: ChEMBL document CHEMBL4834478, “Synthesis and biological evaluation of novel 1,4-benzodiazepin-3-one derivatives as potential antitumor agents against prostate cancer” (Bioorg Med Chem, 2021)
One block for each compound: values may come before it. Activity calls are given as the source filed them. No cut-off for these calls is given here.

What was measured:
[1] = Metabolic stability in human liver microsomes assessed as compound degradation at 10 uM measured after 15 mins by HPLC method; type: ADME, Microsome; conditions: read-out: Drug degradation
[2] = Metabolic stability in human liver microsomes assessed as compound degradation at 10 uM measured after 30 mins by HPLC method; type: ADME, Microsome; conditions: read-out: Drug degradation
PC-3 [3] = assay: Antiproliferative activity against human PC3 cells assessed as inhibition of cell growth measured after 72 hrs by MTT assay; type: functional
PC-3 [4] = assay: Induction of apoptosis in human PC-3 cells assessed as increase in Caspase-3 activity using Z-Asp-Glu-Val-Asp-AMC peptide as substrate at 10 uM measured after 24 to 48 hrs by based flourimetric assay; type: functional, cell-based; conditions: time 24-48 hrs
PANC-1 [5] = assay: Antiproliferative activity against human PANC-1 cells assessed as inhibition of cell proliferation at 15 uM measured after 48 hrs by MTT assay; type: functional, cell-based
PC-3 [6] = assay: Antiproliferative activity against human PC3 cells assessed as cellular metabolic activity at 15 uM measured after 48 hrs by MTT assay; type: functional
OVCAR-3 [7] = assay: Antiproliferative activity against human OVCAR-3 cells assessed as inhibition of cell proliferation at 15 uM measured after 48 hrs by MTT assay; type: functional, cell-based
PC-3 [8] = assay: Antiproliferative activity against human PC3 cells assessed as inhibition of cell proliferation at 2 uM measured after 48 hrs by MTT assay; type: functional, cell-based
OVCAR-3 [9] = assay: Antiproliferative activity against human OVCAR-3 cells assessed as inhibition of cell proliferation at 2 uM measured after 48 hrs by MTT assay; type: functional, cell-based
PC-3 [10] = assay: Antitumour activity against human PC-3 cells xenografted in chick chorioallantoic membrane assessed as inhibition of tumour growth at 50 ug, iv measured after 7 days; type: functional; conditions: dose 50 µg; time 7 day
LNCaP = assay: Antiproliferative activity against human LNCaP cells assessed as inhibition of cell proliferation measured after 72 hrs by MTT assay; type: functional, cell-based
PC-3 [11] = assay: Antitumour activity against human PC-3 cells xenografted in chick chorioallantoic membrane assessed as inhibition of tumour growth at 10 ug, iv measured after 7 days; type: functional; conditions: dose 10 µg; time 7 day
PANC-1 [12] = assay: Antiproliferative activity against human PANC-1 cells assessed as inhibition of cell proliferation at 2 uM measured after 48 hrs by MTT assay; type: functional, cell-based
RPTEC = assay: Cytotoxicity against human RPTEC cells assessed as inhibition of cell proliferation measured after 72 hrs by MTT assay; type: cell-based
[13] = Toxicity in chick embryo assessed as embryo weight at 10 to 50 ug, iv measured after 7 days; type: organism-based, Gallus gallus; conditions: chicken, in vivo, 168 h, dose 10-50 µg, time 7 day
LAPC4 = assay: Antiproliferative activity against human LAPC4 cells assessed as inhibition of cell proliferation measured after 72 hrs by MTT assay; type: functional, cell-based
DU-145 = assay: Antiproliferative activity against human DU-145 cells assessed as inhibition of cell proliferation measured after 72 hrs by MTT assay; type: functional, cell-based
PC-3 [14] = assay: Antiproliferative activity against human PC3 cells assessed as inhibition of cell proliferation at 15 uM measured after 48 hrs by MTT assay; type: functional, cell-based

SMILES: CC(C)C[C@@H]1Nc2ccc([N+](=O)[O-])cc2C(C(=O)NC(C)(C)C)N(Cc2ccc3c(c2)OCO3)C1=O (mixture of isomers)
Activity (PC-3 [14]): Active
Activity (PANC-1 [5]): inactive
Activity (OVCAR-3 [7]): Active
Activity (PC-3 [8]): inactive
Activity (OVCAR-3 [9]): inactive
Activity (PANC-1 [12]): inactive

SMILES: CC(C)C[C@@H]1Nc2ccc([N+](=O)[O-])cc2C(C(=O)NC(C)(C)C)N(Cc2ccccc2)C1=O (mixture of isomers)
Activity (PC-3 [14]): Active
Activity (PANC-1 [5]): inactive
Activity (OVCAR-3 [7]): Active
Activity (PC-3 [8]): inactive
Activity (OVCAR-3 [9]): inactive
Activity (PANC-1 [12]): inactive

Now from value to compound, other results behind:

metabolised at 0.25 h, 10 µM [1]: 26%
metabolised at 0.5 h, 10 µM [2]: 41%
GI50 (PC-3 [3]): 10.8 µM
SMILES: CC(C)(C)NC(=O)[C@H]1c2cc([N+](=O)[O-])ccc2N[C@@H](Cc2ccccc2)C(=O)N1Cc1ccccc1

metabolised at 0.25 h, 10 µM [1]: 41%
metabolised at 0.5 h, 10 µM [2]: 50%
GI50 (PC-3 [3]): 7 µM
SMILES: CC(C)(C)NC(=O)[C@@H]1c2cc([N+](=O)[O-])ccc2N[C@@H](Cc2ccccc2)C(=O)N1Cc1ccccc1

GI50 (PC-3 [3]): 10.2 µM
SMILES: CC(C)(C)NC(=O)C1c2cc([N+](=O)[O-])ccc2N[C@@H](Cc2ccccc2)C(=O)N1Cc1ccccc1 (mixture of isomers)
Activity (PC-3 [4]): Active
Activity (PANC-1 [5]): inactive
Activity (PC-3 [6]): 30%
Activity (OVCAR-3 [7]): Active
Activity (PC-3 [8]): inactive
Activity (OVCAR-3 [9]): inactive
TGI (PC-3 [10]): 53%
Activity (LNCaP): inactive
TGI (PC-3 [11]): 45%
Activity (PANC-1 [12]): inactive
Activity (RPTEC): Non-Toxic
Activity [13]: Non-Toxic
Activity (LAPC4): inactive
Activity (DU-145): inactive
